Measurements: ChEMBL document CHEMBL1137965, “Crucial role of the peroxyketal function for antimalarial activity in the G-factor series” (Bioorg Med Chem Lett, 2004)
pIC50: −log10 of the molar value.

Tested on: Plasmodium falciparum
Experiment: In vitro inhibition of Plasmodium falciparum in [3H]hypoxanthine incorporation assay
Format: functional, organism-based

**Q.** With `CC(=O)OC12OOC(C)(C)C=C1C(=O)C(C)(C)C(=O)C2(C)C` (configuration not stated) as the compound, how does the pIC50 read?
**A.** The pIC50 was 4.69.

**Q.** `CC1(C)C(=O)C2=C(OO[C@]3(C)CO[C@H]23)C(C)(C)C1=O` was tested. Which pIC50 did it give?
**A.** Its pIC50 is < 4.00.

**Q.** How did the pIC50 turn out when `CC1(C)C=C2C(=O)C(C)(C)C(=O)C(C)(C)[C@@]2(O)OO1` was run?
**A.** Its pIC50 is 4.44.

**Q.** How did the pIC50 turn out when `CO[C@]12OO[C@@](C)(CO[Si](c3ccccc3)(c3ccccc3)C(C)(C)C)C=C1C(=O)C(C)(C)C(=O)C2(C)C` was run?
**A.** Its pIC50 is 5.82.

**Q.** `CC1(C)C=C2C(=O)C(C)(C)C(=O)C(C)(C)C2(F)OO1` (configuration not stated) was tested. Which pIC50 did it give?
**A.** Its pIC50 is < 4.00.

**Q.** `CO[C@]12OO[C@](C)(CO[Si](c3ccccc3)(c3ccccc3)C(C)(C)C)C=C1C(=O)C(C)(C)C(=O)C2(C)C` was tested. Which pIC50 did it give?
**A.** Its pIC50 is 5.85.

**Q.** How did the pIC50 turn out when `CO[C@]12OO[C@](C)(CO)C=C1C(=O)C(C)(C)C(=O)C2(C)C` was run?
**A.** Its pIC50 is 4.40.

**Q.** With `CO[C@]12OOC(C)(C)C=C1C(=O)C(C)(C)C(=O)C2(C)C` as the compound, how does the pIC50 read?
**A.** Its pIC50 is 6.55.

**Q.** `C[C@@H]1CC[C@H]2[C@@H](C)C(=O)O[C@@H]3O[C@@]4(C)CC[C@@H]1[C@]32OO4` [ARTEMISININ] was tested. Which pIC50 did it give?
**A.** Its pIC50 is 7.82.

**Q.** With `CC1(C)C(=O)C2=C[C@](C)(CO)OO[C@]2(O)C(C)(C)C1=O` as the compound, how does the pIC50 read?
**A.** The pIC50 was < 4.00.

**Q.** `CO[C@]12OO[C@@](C)(CO)C=C1C(=O)C(C)(C)C(=O)C2(C)C` was tested. Which pIC50 did it give?
**A.** The pIC50 was 5.85.

**Q.** How did the pIC50 turn out when `CC1(C)C(=O)C2=C[C@@](C)(CO)OO[C@]2(O)C(C)(C)C1=O` was run?
**A.** Its pIC50 is < 4.00.
